Patent US20210317145A1, “Boronic Acid Derivatives” (Merck Patent GmbH, priority 2018, published 2021)

Key:
[1] = target: Beta5 (purified human constitutive proteasome) (Homo sapiens, UniProt P20618+P28074); test: Determination of Beta5 activity (fluorescence intensity assay, Suc-LLVY-AMC); type: biochemical; details: purified human constitutive proteasome 1.25 nM, incubation for 20 minutes at 25° C., Suc-LLVY-AMC 40 μM
Experimental: Determination of Beta5 Activity:
Measurement of Beta5 inhibition is performed in 384 well format based on fluorescence intensity assay.
(§1) Purified human constitutive proteasome (1.25 nM) and serial diluted compounds in DMSO (range of concentrations from 30 μM to […]) or controls are incubated for 20 minutes or 120 minutes (long incubation) at 25° C. in assay buffer containing 50 mM Tris pH 7.4, 0.03% SDS, 1 mM EDTA and 1% DMSO. The reaction is initiated by the addition of the fluorogenic peptide substrate, Suc-LLVY-AMC (Bachem 1-1395), at a concentration of 40 μM. After 60 minutes of incubation at 37° C., fluorescence intensity is measured at λex=350 nm and λem=450 nm with a fluorescence reader (Perkin Elmer Envision reader or equivalent).
(§2) Unless indicated otherwise the results are obtained after incubation for 20 minutes.

[2] = target: LMP7 (purified human immuno proteasome) (Homo sapiens, UniProt P20618+P28062); test: Determination of LMP7 activity (fluorescence intensity assay, Suc-LLVY-AMC); type: biochemical; details: for Selectivity LMP7 vs Beta5: LMP7 versus Beta5, incubation for 20 minutes; for IC50: purified human immuno proteasome 0.25 nM, incubation for 20 minutes at 25° C., Suc-LLVY-AMC 40 μM
Experimental: Determination of LMP7 Activity:
Measurement of LMP7 inhibition is performed in 384 well format based on fluorescence intensity assay.
as §1, with “immuno” for “constitutive”, “(0.25” for “(1.25”
as §2

[3] = target: LMP7 subunit of the immunoproteasome (Homo sapiens, UniProt P20618+P28062); details: Singh et al, Br. J. Hematology 152(2): 155-163; cited from earlier work

| SMILES | IC50 [1] | Selectivity LMP7 vs Beta5 [2] | IC50 [2] | selective inhibitor of the LMP7 subunit of the immunoproteasome [3] |
| --- | --- | --- | --- | --- |
| O=C(N[C@@H](Cc1coc2ccccc12)B(O)O)[C@H]1CCCO1 [Compound 27, [(1R)-2-(benzofuran-3-yl)-1-[[(2R)-tetrahydro-furan-2-carbonyl]amino]-ethyl]boronic acid] | 500 to 5000 nM | ++ (100 ≤ Selectivity < 300) | ≤ 50 nM | – |
| COCC(=O)N[C@@H](Cc1coc2ccccc12)B(O)O [Compound 28, [(1R)-2-(benzofuran-3-yl)-1-[(2-methoxy-acetyl)amino]ethyl]-boronic acid] | 500 to 5000 nM | + (Selectivity <100) | ≤ 50 nM | – |
| COCCC(=O)N[C@@H](Cc1coc2ccccc12)B(O)O [Compound 31, [(1R)-2-(benzofuran-3-yl)-1-(3-methoxy-propanoylamino)ethyl]-boronic acid] | 50 to 500 nM | ++ (100 ≤ Selectivity < 300) | ≤ 50 nM | – |
| O=C(N[C@@H](Cc1coc2ccccc12)B(O)O)C1COc2ccccc21 (stereo partly drawn) [Compound 35, [(1R)-2-(benzofuran-3-yl)-1-(2,3-dihydrobenzo-furan-3-carbonylamino)-ethyl]boronic acid] | 500 to 5000 nM | ++++ (Selectivity ≥ 500) | ≤ 50 nM | – |
| O=C(N[C@@H](C[C@@H]1COc2ccccc21)B(O)O)[C@@H]1CCOC1 [Compound 41, [(1R)-2-[(3S)-2,3-dihydrobenzofuran-3-yl]-1-[[(3R)-tetra-hydrofuran-3-carbonyl]-amino]ethyl]boronic acid] | 5000 to 30000 nM | ++++ (Selectivity ≥ 500) | 50 to 500 nM | – |
| Cc1cccc2c1OC[C@H]2C[C@H](NC(=O)[C@@H]1CCOC1)B(O)O [Compound 42, [(1R)-2-[(3S)-7-methyl-2,3-dihydrobenzofuran-3-yl]-1-[[(3R)-tetra-hydrofuran-3-carbonyl]-amino]ethyl]boronic acid] | 5000 to 30000 nM | +++ (300 ≤ Selectivity < 500) | 50 to 500 nM | – |
| CC1=C(C(=O)N[C@H](C)C(=O)N[C@@H](Cc2c[nH]c3ccccc23)C(=O)N[C@@H](Cc2ccccc2)C(=O)[C@@]2(C)CO2)Cc2ccccc21 [PR-924] | – | – | – | 100 fold |

Continued, in another order:

| IC50 [1] | Selectivity LMP7 vs Beta5 [2] | IC50 [2] | SMILES | selective inhibitor of the LMP7 subunit of the immunoproteasome [3] |
| --- | --- | --- | --- | --- |
| 5000 to 30000 nM | ++ (100 ≤ Selectivity < 300) | ≤ 50 nM | CC(C)(O)CC(=O)N[C@@H](Cc1coc2ccccc12)B(O)O [Compound 25, [(1R)-2-(benzofuran-3-yl)-1-[(3-hydroxy-3-methylbutanoyl)amino]-ethyl]boronic acid] | – |
| 5000 to 30000 nM | ++ (100 ≤ Selectivity < 300) | 50 to 500 nM | O=C(N[C@@H](Cc1coc2ccccc12)B(O)O)[C@@H]1CCCO1 [Compound 26, [(1R)-2-(benzofuran-3-yl)-1-[[(2S)-tetrahydro-furan-2-carbonyl]amino]-ethyl]boronic acid] | – |
| 500 to 5000 nM | ++ (100 ≤ Selectivity < 300) | ≤ 50 nM | Cc1cccc2c(C[C@H](NC(=O)[C@H]3CCCO3)B(O)O)coc12 [Compound 29, [(1R)-2-(7-methylbenzo-furan-3-yl)-1-[[(2R)-tetrahydrofuran-2-carbonyl]amino]ethyl]-boronic acid] | – |
| 5000 to 30000 nM | ++ (100 ≤ Selectivity < 300) | 50 to 500 nM | Cc1cccc2c(C[C@@H](NC(=O)[C@H]3CCCO3)B(O)O)coc12 [Compound 30] | – |
| 5000 to 30000 nM | ++ (100 ≤ Selectivity < 300) | ≤ 50 nM | O=C(N[C@@H](Cc1coc2ccccc12)B(O)O)[C@H]1CCOC1 [Compound 32, [(1R)-2-(benzofuran-3-yl)-1-[[(3S)-tetrahydro-furan-3-carbonyl]-amino]ethyl]boronic acid] | – |
| 500 to 5000 nM | ++++ (Selectivity ≥ 500) | ≤ 50 nM | O=C(N[C@@H](Cc1coc2ccccc12)B(O)O)[C@@H]1CCOC1 [Compound 33, [(1R)-2-(benzofuran-3-yl)-1-[[(3R)-tetrahydro-furan-3-carbonyl]-amino]ethyl]boronic acid] | – |
| 500 to 5000 nM | +++ (300 ≤ Selectivity < 500) | ≤ 50 nM | O=C(N[C@@H](Cc1coc2ccccc12)B(O)O)C1OCCc2ccccc21 (stereo partly drawn) [Compound 38, [(1R)-2-(benzofuran-3-yl)-1-(isochromane-1-carbonylamino)ethyl]-boronic acid] | – |
| 500 to 5000 nM | ++ (100 ≤ Selectivity < 300) | ≤ 50 nM | O=C(N[C@@H](Cc1coc2ccccc12)B(O)O)[C@@H]1COCCO1 [Compound 39, [(1R)-2-(benzofuran-3-yl)-1-[[(2S)-1,4-dioxane-2-carbonyl]-amino]ethyl]boronic acid] | – |
| 500 to 5000 nM | + (Selectivity <100) | ≤ 50 nM | O=C(N[C@@H](Cc1coc2ccccc12)B(O)O)[C@H]1COCCO1 [Compound 40, [(1R)-2-(benzofuran-3-yl)-1-[[(2R)-1,4-dioxane-2-carbonyl]-amino]ethyl]boronic acid] | – |
